Source: BindingDB's records for doi:10.1021/jm00159a032 (1986)

Biological target: Thymidylate synthase (Streptococcus faecium)
Assay: Inhibitory activity against thymidylate synthase of Streptococcus faecium

IC50: 5.5 nM
SMILES: C#CN(Cc1ccc2nc(N)[nH]c(=O)c2c1)c1ccc(C(=O)NC(CCC(=O)NC(CCC(=O)NC(CCC(=O)O)C(=O)O)C(=O)O)C(=O)O)cc1 (stereo unspecified) [4-[4-(4-{4-[(2-Amino-4-hydroxy-quinazolin-6-ylmethyl)-ethynyl-amino]-benzoylamino}-4-carboxy-butyrylamino)-4-carboxy-butyrylamino]-4-carboxy-butyric acid anion]
